This note sets out measurements from ChEMBL document CHEMBL1201862, “PubChem BioAssay data set” (2004).

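Method: 48-hour compound exposure of cells in 96-well plates, five concentrations, linear interpolation of endpoints. GI50 is the concentration that inhibits growth by half.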 Activity calls are given as the source filed them. Cut-off read from the data, not from the text of the source: active = GI50 up to about 1.1 µM and inactive = higher. Where a SMILES comes first, the peptide text is derived from it. [ ]: non-standard residue; d: D form. The star is where a group is joined. ξ: configuration not given here. NMeF = CN[C@@H](Cc1ccccc1)C(=O)O; NMeV = CN[C@H](C(=O)O)C(C)C; ξNMeN = CNC(CC(N)=O)C(=O)O; NMeA = CN[C@@H](C)C(=O)O; ξNMeV = CNC(C(=O)O)C(C)C; Boc = CC(C)(C)OC(=O)* Where only a bound is given, the exact number is not on record here.

Among the test systems are BT-549; CAKI-1; CCRF-CEM; COLO 205; HCC 2998; HCT-15; HL-60; HOP-92; IGROV-1; K562; MCF7; MDA-MB-231; MOLT-4; OVCAR-4; PC-3; RXF 393; SF-268; SNB-19; TK-10; U-251.
Common to all, as to experiment: NCI anticancer screen, dose series, 48 h

As to `COCCOC1=C(Cl)C(=O)c2c(O)ccc(O)c2C1=O`, the GI50 in the test on BT-549 was 2.52 µM (inactive); in the test on CAKI-1, 0.438 µM (active); with CCRF-CEM, 0.111 µM (active); with COLO 205, 0.838 µM (active); in the test with HCC 2998 it was 8.2 µM (inactive); in the test on HCT-15, 1.21 µM. Moreover, the GI50 with HL-60 was 0.111 µM (active); in the test with HOP-92, 0.726 µM (active); in the test with IGROV-1, 3.08 µM (inactive); in the test on K562, 0.635 µM (active); with MCF7 it was 1.21 µM (inactive); with MDA-MB-231, 1.41 µM (inactive). Further, the GI50 is 0.105 µM (active) in the test with MOLT-4; 1.94 µM (inactive) in the test on OVCAR-4; 4.62 µM (inactive) in the test with PC-3; 0.798 µM (active) in the test on RXF 393; 4.71 µM (inactive) in the test on SF-268; 14.6 µM (inactive) in the test with SNB-19. The GI50 is 1.47 µM (inactive) in the test with TK-10 and 4.75 µM (inactive) in the test on U-251.

For `COc1ccccc1/C=C1\CCC(CN(C)C)C1=O` (stereo not given), the GI50 is 13.3 µM (inactive) in the test with BT-549; 5.6 µM (inactive) in the test on CAKI-1; 1.5 µM (inactive) in the test on CCRF-CEM; 2.25 µM (inactive) in the test on COLO 205; 5.21 µM (inactive) with HCC 2998; 2.75 µM with HCT-15. Besides, the GI50 is 1.49 µM (inactive) with HL-60; 2.99 µM (inactive) in the test on HOP-92; 13.3 µM (inactive) with IGROV-1; 2.28 µM (inactive) in the test with K562; 2.12 µM (inactive) with MCF7; 2.43 µM (inactive) in the test on MDA-MB-231. Besides, the GI50 with MOLT-4 was 4.61 µM (inactive); in the test on OVCAR-4 it was 6.92 µM (inactive); in the test with PC-3 it was 8.05 µM (inactive); in the test with RXF 393, 3.84 µM (inactive); with SF-268, 10.6 µM (inactive); with SNB-19, 17.1 µM (inactive). The GI50 is 5.73 µM (inactive) with TK-10 and 11.1 µM (inactive) in the test with U-251.

Turning to `COC(=O)[C@H](C)N(C)C(=O)C(CC(N)=O)N(C)C(=O)[C@H](Cc1ccccc1)N(C)C(=O)[C@@H]1CCCN1C(=O)[C@H](C(C)C)N(C)C(=O)C(C(C)C)N(C)C(=O)[C@@H](NC(=O)OC(C)(C)C)C(C)C` (stereo not given in full) (Boc-V[ξNMeV][NMeV]P[NMeF][ξNMeN][NMeA]-OMe), the GI50 in the test on BT-549 was > 50 µM (inactive); with CAKI-1, > 50 µM (inactive); in the test with CCRF-CEM, 13.6 µM (inactive); with COLO 205, > 50 µM (inactive); in the test on HCC 2998, > 50 µM (inactive); with HCT-15 it was greater than 75 µM. For the same compound, the GI50 in the test with HL-60 was 12.1 µM (inactive); with HOP-92, 29 µM (inactive); in the test on IGROV-1, > 50 µM (inactive); with K562, > 50 µM (inactive); in the test on MCF7, > 50 µM (inactive); in the test with MDA-MB-231, > 50 µM (inactive). Besides, the GI50 is 24.5 µM (inactive) in the test with MOLT-4; 38.5 µM (inactive) in the test on OVCAR-4; > 50 µM (inactive) in the test with PC-3; 37.6 µM (inactive) with RXF 393; 41.7 µM (inactive) in the test with SF-268; > 50 µM (inactive) in the test on SNB-19. The GI50 in the test on TK-10 and in the test with U-251 was > 50 µM (inactive) each time.

For the compound `Cc1cc(Cl)nc2nc(Cl)c(N)cc12`, the GI50 with BT-549 is 14.6 µM (inactive); in the test with CAKI-1 it was 0.354 µM (active); in the test with CCRF-CEM it was 1.67 µM (inactive); with COLO 205 it was 2.06 µM (inactive); with HCC 2998, 1.86 µM (inactive); in the test on HCT-15 it was 1.9 µM. Besides, the GI50 in the test on HL-60 was 1.77 µM (inactive); with HOP-92, 2.18 µM (inactive); in the test on IGROV-1 it was 7.87 µM (inactive); in the test on K562, 3.23 µM (inactive); in the test on MCF7, 1.63 µM (inactive); in the test on MDA-MB-231 it was 3.48 µM (inactive). The GI50 in the test with MOLT-4 was 4.6 µM (inactive); in the test with OVCAR-4, 2.64 µM (inactive); in the test on PC-3, 12.1 µM (inactive); in the test with RXF 393 it was 8.2 µM (inactive); with SF-268 it was 2.29 µM (inactive); with SNB-19, 4.95 µM (inactive). Besides, the GI50 in the test with TK-10 was 6.58 µM (inactive); with U-251, 2.05 µM (inactive).

Take `COc1ccc2c(c1)CC1C3(CCCCC23)CC[N+]1(C)C` (stereo not given): the GI50 with BT-549 was 24.9 µM (inactive); in the test with CAKI-1, > 100 µM (inactive); with CCRF-CEM, > 100 µM (inactive); with COLO 205 it was > 100 µM (inactive); with HCC 2998, > 100 µM (inactive); in the test on HCT-15 it was greater than 100 µM. Besides, the GI50 with HL-60 was 50.5 µM (inactive); with HOP-92, 87.5 µM (inactive); with IGROV-1, > 100 µM (inactive); with K562, 75.5 µM (inactive); in the test with MCF7, > 100 µM (inactive); in the test with MDA-MB-231 it was > 100 µM (inactive). Moreover, the GI50 was > 100 µM (inactive) in the test on MOLT-4; > 100 µM (inactive) in the test on OVCAR-4; > 100 µM (inactive) in the test with PC-3; > 100 µM (inactive) in the test with RXF 393; 90.8 µM (inactive) with SF-268; 73.5 µM (inactive) in the test on SNB-19. Further, the GI50 in the test with TK-10 is > 100 µM (inactive); in the test with U-251, 66.7 µM (inactive).

As for `CC1CNC(c2ccc(-c3nc(-c4ccc(C5=NC(C)CN5)cc4)nc(N(C)C)n3)cc2)=N1` (stereo not given), the GI50 is 3.74 µM (inactive) in the test on BT-549; 17.6 µM (inactive) in the test on CAKI-1; 0.685 µM (active) in the test with CCRF-CEM; 1.1 µM (active) with COLO 205; 1.83 µM (inactive) with HCC 2998; 16.6 µM in the test on HCT-15. For the same compound, the GI50 in the test with HL-60 is 2.62 µM (inactive); in the test on HOP-92 it was 3.14 µM (inactive); in the test on IGROV-1 it was 4.06 µM (inactive); with K562, 1.41 µM (inactive); in the test with MCF7, 1.42 µM (inactive); in the test with MDA-MB-231 it was 1.31 µM (inactive). The GI50 in the test on MOLT-4 is 0.681 µM (active); in the test with OVCAR-4, 1.55 µM (inactive); with PC-3, 1.57 µM (inactive); in the test with RXF 393, 3.22 µM (inactive); in the test with SF-268, 2 µM (inactive); with SNB-19 it was 1.75 µM (inactive). The GI50 in the test with TK-10 is 3.78 µM (inactive); in the test on U-251 it was 0.991 µM (active).

As for `Cc1c(C)c2c(c(N)c1C#N)C(=O)N(OS(=O)(=O)c1ccccc1)C2=O`, the GI50 in the test with BT-549 is 19.9 µM (inactive); with CAKI-1, 20.8 µM (inactive); in the test with CCRF-CEM it was 21.5 µM (inactive); with COLO 205, 21.8 µM (inactive); in the test with HCC 2998 it was 38.7 µM (inactive); with HCT-15, 20.9 µM. For the same compound, the GI50 with HL-60 was 30.1 µM (inactive); in the test on HOP-92 it was 17 µM (inactive); in the test on IGROV-1, 18.5 µM (inactive); with K562, 16.7 µM (inactive); with MCF7, 38 µM (inactive); in the test on MDA-MB-231, 52.8 µM (inactive). Further, the GI50 was 21.4 µM (inactive) in the test on MOLT-4; 21.2 µM (inactive) in the test on OVCAR-4; 35.6 µM (inactive) in the test with PC-3; 15.2 µM (inactive) with RXF 393; 95.1 µM (inactive) in the test on SF-268; > 100 µM (inactive) with SNB-19. The GI50 in the test on TK-10 is 18 µM (inactive); with U-251, 20.5 µM (inactive).
